Tests used:
Sprague Dawley rats [1] = test: Lower lip retraction (LLR) in rats; type: in vivo, rat; details: for induction of LLR (in words): given alone: 8-OH-DPAT 1 mg/kg, Zn 2 and 5 mg/kg, WAY-100635 0.1 mg/kg
Experimental: The experiments were performed on male Albino Swiss mice (23-25 g) and Sprague Dawley rats (200-250 g) from Charles River, Germany as well as […]-flx-YFP mice from Jackson Labs, Bangor ME and the Hen lab, respectively. The animals were kept under standard laboratory conditions with respect to lighting (light phase 7:00-19:00) and temperature (19-21 °C). Food and water were freely available. Each experimental group consisted of eight to ten animals. All of the animals were experimentally naive and were used only once in each test. The experiments were performed during the light period (9:00-14:00 h). All of the procedures were conducted according to the guidelines of the National Institutes of Health Animal Care and Use Committee and were approved by the Ethics Committees of the Institute of Pharmacology, Polish Academy of Sciences in Krakow and the Animal Care Committee, University of Ottawa. […] Controls were treated with the appropriate diluent, which was indicated as VEH on the graphs and in the tables. LLR was assessed according to the method described by Berendsen et al., [20]. The rats were individually placed in cages (30×25×25 cm) and were scored three times, 15, 30 and 45 min after the administration of Zn as follows: 0=lower incisors not visible, 0.5=partly visible and 1=completely visible. Zn was administered at doses of 2 and 5 mg Zn/kg (given as Zn hydroaspartate, Farmapol, Poland). The maximum total score was 3/rat. In addition, the effects of Zn and WAY-100635 (0.1 mg/kg; […] Sigma) were tested.

Sprague Dawley rats [2] = test: 5-HT behavioural syndrome (flat body posture, forepaw treading) in rats; type: in vivo, rat; details: VEH + 8-OH-DPAT 5 mg/kg
Experimental: (§1) The experiments were performed on male Albino Swiss mice (23–25 g) and Sprague Dawley rats (200–250 g) from Charles River, Germany as well as TPH2-Cre-ER^T2 x flx-5-HT1A-flx-YFP mice from Jackson Labs, Bangor ME and the Hen lab, respectively. The animals were kept under standard laboratory conditions with respect to lighting (light phase 7:00–19:00) and temperature (19–21 °C). Food and water were freely available. Each experimental group consisted of eight to ten animals. All of the animals were experimentally naive and were used only once in each test. The experiments were performed during the light period (9:00–14:00 h). All of the procedures were conducted according to the guidelines of the National Institutes of Health Animal Care and Use Committee and were approved by the Ethics Committees of the Institute of Pharmacology, Polish Academy of Sciences in Krakow and the Animal Care Committee, University of Ottawa.
Zn (all doses refer to mg Zn/kg) was given as either Zn hydroaspartate (Farmapol, Poland) or Zn chloride (Sigma-Aldrich) and was dissolved in 0.9 % NaCl and administered intraperitoneally (i.p.). 8-OH-DPAT and WAY-100635 were dissolved in aqua pro-injection and were administered subcutaneously (s.c.). Controls were treated with the appropriate diluent, which was indicated as VEH on the graphs and in the tables.
The experiments were conducted according to previously published procedure, with a modification to the ranked intensity scale. Briefly, the rats were individually placed in cages (30×25×25 cm) 5 min before tested compounds were injected. Forepaw treading (FT) and flat body posture (FBP) were scored using a ranked intensity scale, where 0=absent, 1=equivocal and 2=present. The Zn (2, 5, 7.5 and 11.5 mg Zn/kg, given as a Zn hydroaspartate)-induced behavioural syndrome was scored for each animal 3, 6, 9, 12 and 15 min after the Zn treatment. Each observation session lasted for 45 s. The maximum score, which was summed over 5 observation periods, was 10 for each symptom/rat. The effect of Zn on the behavioural syndrome induced by 8-OH-DPAT (5 mg/kg) was scored using the same scale. Zn was administered 60 min before 8-OH-DPAT, and the animals were scored 3, 6, 9, 12 and 15 min after the 8-OH-DPAT treatment.

Body temperature in mice = type: in vivo, mouse
Experimental: The experiments were performed on male Albino Swiss mice (23-25 g) and Sprague Dawley rats (200-250 g) from Charles River, Germany as well as […]-flx-YFP mice from Jackson Labs, Bangor ME and the Hen lab, respectively. The animals were kept under standard laboratory conditions with respect to lighting (light phase 7:00-19:00) and temperature (19-21 °C). Food and water were freely available. Each experimental group consisted of eight to ten animals. All of the animals were experimentally naive and were used only once in each test. The experiments were performed during the light period (9:00-14:00 h). All of the procedures were conducted according to the guidelines of the National Institutes of Health Animal Care and Use Committee and were approved by the Ethics Committees of the Institute of Pharmacology, Polish Academy of Sciences in Krakow and the Animal Care Committee, University of Ottawa. […] Controls were treated with the appropriate diluent, which was indicated as VEH on the graphs and in the tables. […] The results were expressed as a change in body temperature with respect to the basal body temperature, which was measured at the beginning of the experiments.

Body temperature in rats = type: in vivo, rat; details: 8-OH-DPAT 5 mg/kg, vs saline group
Experimental: as §1, with “Ottawa. […]” for “Ottawa.”
The effects of Zn (2, 5, 7.5 and 11.5 mg Zn/kg for rats and 2 and 5 mg/kg for mice, given as a Zn hydroaspartate), 8-OH-DPAT (5 mg/kg) and WAY-100635 (0.1mg/kg) on rectal body temperature were recorded 30 and 60 min after their acute administration. The results were expressed as a change in body temperature with respect to the basal body temperature, which was measured at the beginning of the experiments.

Sprague Dawley rats [3] = test: Forced swim test (FST) in rats; type: in vivo, rat
Experimental: The test was carried out according to the method described previously [10]. On day one of the experiment, the animals were individually placed in plexiglass cylinders (40 cm in height, 18 cm in diameter), containing 25 cm of water maintained at 24–25 °C for a 15-min habituation period. After the rats were removed from the water, they were again placed in their home cages. On the second day, the rats were again placed in the cylinders, and the total duration of immobility was measured for a 5-min test period. Zn (1 or 2 mg Zn/ kg, given as Zn hydroaspartate) and 8-OH-DPAT (0.1 or 0.3 mg/kg) were administered alone or jointly 30 min before the test. WAY-100635 (0.1 mg/kg) was administered 15 min before the Zn treatment.

[4] = target: T1, human 5-HT1AR stably expressed in HEK293 cells (Homo sapiens, UniProt P08908); test: Saturation binding of [3H]-8-OH-DPAT in the absence and presence of Zn; details: saturation binding
T1 construct: The full-length human 5HTR1A complementary DNA (cDNA); membranes prepared from the cells
T1 sequence (P08908 1-422): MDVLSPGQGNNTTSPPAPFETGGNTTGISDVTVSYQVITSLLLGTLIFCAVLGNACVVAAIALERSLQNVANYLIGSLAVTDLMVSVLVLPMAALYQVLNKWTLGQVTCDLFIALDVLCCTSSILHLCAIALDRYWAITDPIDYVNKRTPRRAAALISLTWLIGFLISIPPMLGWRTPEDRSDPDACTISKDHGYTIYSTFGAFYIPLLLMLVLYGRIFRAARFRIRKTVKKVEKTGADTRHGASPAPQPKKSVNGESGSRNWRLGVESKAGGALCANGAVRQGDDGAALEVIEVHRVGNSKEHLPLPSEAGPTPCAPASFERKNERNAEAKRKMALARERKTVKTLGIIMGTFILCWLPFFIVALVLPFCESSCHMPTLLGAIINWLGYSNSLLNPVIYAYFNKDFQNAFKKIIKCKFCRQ
Experimental: The full-length human 5HTR1A complementary DNA (cDNA), which was cloned into the mammalian expression vector pcDNA3.1(+), was obtained from the Missouri S&T cDNA Resource Center (www.cdna.org). The receptor cDNA was stably transfected into human embryonic kidney cells (HEK293, ATCC) with the use of Lipofectamine 2000 (Invitrogen).
Cell pellets were thawed and homogenized in 20 volumes of 50 mM Tris–HCl buffer (pH 7.7) containing 0.1 mM EDTA and 10 mM MgCl2, using an Ultra Turrax tissue homogenizer. The pellets were then centrifuged twice at 35,000g for 20 min at 4 °C, with incubation for 15 min at 37 °C in between centrifugations. Membranes were aliquoted in tubes. Membrane protein concentrations were determined using the Pierce™ Coomassie (Bradford) Protein Assay Kit, with bovine serum albumin (BSA) as a standard.
The incubation buffer consisted of 50 mM Tris–HCl (pH 7.7), 10 mM MgCl2, 10 mM pargyline and 0.1 % ascorbic acid. Radioligand binding assays were performed by incubating 30 μg of protein of the membrane suspension in 96-well microtitre plates for 60 min at room temperature with shaking, in a total volume of 200 μl. The binding reactions were stopped by filtration through GF/C Unifilter plates using a harvester (PerkinElmer). The plate filters were dried, and 20 μl of Ultima Gold MV (PerkinElmer) was added. Radioactivity was measured using a MicroBeta TriLux counter (PerkinElmer).
All experiments were performed in triplicate, and the results were obtained from at least three independent experiments. The data are expressed as the mean±S.D. (standard deviation). The experimental data were analysed using GraphPad Prism 5.1 for Windows (GraphPad Software, San Diego California USA, www.graphpad.com).

CCCN(CCC)C1CCc2cccc(O)c2C1 (stereo not drawn) [8-OH-DPAT, 8-Hydroxy-2-(di-n-propylamino)tetralin, reference compound]
Mean LLR score (B) 8-OH-DPAT 1 mg/kg (Sprague Dawley rats [1]; VEH pretreatment + 8-OH-DPAT 1 mg/kg): 2.25±0.46
induction of LLR (in words) (Sprague Dawley rats [1]): induced LLR
behavioural score FBP (B) 8-OH-DPAT (Sprague Dawley rats [2]): 7.83±0.7
behavioural score FT (B) 8-OH-DPAT (Sprague Dawley rats [2]): 7.5±0.6
change in body temperature (Body temperature in mice; 8-OH-DPAT 5 mg/kg, vs saline group): significant decrease in body temperature
change in body temperature (Body temperature in rats): significant decrease in body temperature
immobility time in the FST (Sprague Dawley rats [3]; 8-OH-DPAT 0.1 mg/kg): not 0.1 mg/kg (p>0.05) decreased the immobility time
immobility time in the FST (Sprague Dawley rats [3]; 8-OH-DPAT 0.3 mg/kg): decreased the immobility time

COc1ccccc1N1CCN(CCN(C(=O)C2CCCCC2)c2ccccn2)CC1 [WAY-100635, N-[2[4-(2-methoxyphenyl)-1-piperazinyl]ethyl]-N-(2-pyridyl)cyclohexanecarboxamide, reference compound]
Mean LLR score (B) 8-OH-DPAT 1 mg/kg (Sprague Dawley rats [1]; WAY 100635 0.1 mg/kg 45 min before 8-OH-DPAT 1 mg/kg): 0.67±0.76
Mean LLR score (A) VEH (Sprague Dawley rats [1]; WAY 100635 0.1 mg/kg s.c. alone, max score 3/rat): 0.0±0.0
effect on LLR induced by 8-OH-DPAT (in words) (Sprague Dawley rats [1]; Zn 2 and 5 mg/kg or WAY-100635 0.1 mg/kg before 8-OH-DPAT 1 mg/kg): blocked the LLR induced by 8-OH-DPAT
induction of LLR (in words) (Sprague Dawley rats [1]): did not evoke LLR
effect of pretreatment on Zn-induced decrease in body temperature (Body temperature in mice; WAY-100635 0.1 mg/kg s.c. 15 min before Zn): abolished the effect induced by Zn
effect on Zn-induced decrease in immobility time (Sprague Dawley rats [3]; WAY-100635 0.1 mg/kg 15 min before Zn): antagonized the Zn-induced decrease in the immobility time
behaviour in the FST (Sprague Dawley rats [3]; WAY-100635 0.1 mg/kg given alone): did not change the behaviour of the animals

CCCN(CCC)C1CCc2cccc(O)c2C1 (stereo not drawn) [[^3H]-8-OH-DPAT]
Bmax of [3H]8-OH-DPAT ([4]; Zn2+ 0 μM): 4.5±0.3 pM/mg prot
Bmax of [3H]8-OH-DPAT ([4]; Zn2+ 10 μM): 5.8±0.7 pM/mg prot
Bmax of [3H]8-OH-DPAT ([4]; Zn2+ 10 μM, listed as [^3H]8-OH-DPAT): 5.8±0.7 pM/mg prot
Bmax of [3H]8-OH-DPAT ([4]; Zn2+ 100 μM): 6.2±2.0 pM/mg prot
Bmax of [3H]8-OH-DPAT ([4]; Zn2+ 500 μM): 4.7±0.7 pM/mg prot
Bmax of [3H]8-OH-DPAT ([4]; Zn2+ 1000 μM): 4.0±0.6 pM/mg prot
